According to PubChem BioAssay AID248 (DTP/NCI, 2004):
Where “and” joins values, the source holds several entries; their conditions need not be identical. Equal entries are not always repeated. Inconclusive results and toxic doses are left out. No stated cut-off is given here; in the data, active means T/C of 150% or more; inactive means T/C below 125%.

System: L1210 leukemia ip in BDF1 mice, survival T/C
Experiment: NCI In Vivo Anticancer Drug Screen. Data for tumor model L1210 Leukemia (intraperitoneal) in B6D2F1 (BDF1) mice
Settings: endpoint: mean survival time, higher = longer survival
In short: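 Value reflects the ratio of survival in compound-treated mice to survival in vehicle-treated controls, with both groups carrying the same transplanted tumor.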

[1] = dose: 100.0 mg/kg/injection, schedule: Q04DX003 (ip), vehicle: saline
[2] = dose: 200.0 mg/kg/injection, schedule: Q04DX003 (ip), vehicle: saline
[3] = dose: 50.0 mg/kg/injection, schedule: Q01DX009 (ip), vehicle: saline with Tween-80
[4] = dose: 100.0 mg/kg/injection, schedule: Q01DX009 (ip), vehicle: saline with Tween-80
[5] = dose: 100.0 mg/kg/injection, schedule: Q04DX003 (ip), vehicle: saline with Tween-80
[6] = dose: 200.0 mg/kg/injection, schedule: Q01DX009 (ip), vehicle: saline with Tween-80
[7] = dose: 200.0 mg/kg/injection, schedule: Q04DX003 (ip), vehicle: saline with Tween-80
[8] = dose: 100.0 mg/kg/injection, schedule: Q04DX003 (ip), vehicle: Klucel (hydroxypropylcellulose) (HPC)
[9] = dose: 200.0 mg/kg/injection, schedule: Q04DX003 (ip), vehicle: Klucel (hydroxypropylcellulose) (HPC)
[10] = dose: 400.0 mg/kg/injection, schedule: Q04DX003 (ip), vehicle: Klucel (hydroxypropylcellulose) (HPC)
[11] = dose: 100.0 mg/kg/injection, schedule: Q01DX001 (ip), vehicle: saline
[12] = dose: 200.0 mg/kg/injection, schedule: Q01DX001 (ip), vehicle: saline
[13] = dose: 400.0 mg/kg/injection, schedule: Q01DX001 (ip), vehicle: saline
[14] = dose: 400.0 mg/kg/injection, schedule: Q04DX003 (ip), vehicle: saline
[15] = dose: 100.0 mg/kg/injection, schedule: Q01DX009 (ip), vehicle: Klucel (hydroxypropylcellulose) (HPC)
[16] = dose: 200.0 mg/kg/injection, schedule: Q01DX009 (ip), vehicle: Klucel (hydroxypropylcellulose) (HPC)
[17] = dose: 400.0 mg/kg/injection, schedule: Q04DX003 (ip), vehicle: saline with Tween-80

Measured: T/C

C=CCCCCCCCCC(=O)O
inactive: dose: 100.0 mg/kg/injection, schedule: Q01DX009 (ip), vehicle: other 104 % of control | dose: 100.0 mg/kg/injection, schedule: Q04DX002 (ip), vehicle: other 87 % of control | dose: 200.0 mg/kg/injection, schedule: Q01DX009 (ip), vehicle: other 93 % of control | dose: 200.0 mg/kg/injection, schedule: Q04DX002 (ip), vehicle: other 112 % of control | dose: 400.0 mg/kg/injection, schedule: Q01DX009 (ip), vehicle: other 89 % of control

O=c1[nH]cnc2c1nnn2C1CC(CO)C(O)C1O (stereo not given)
inactive: dose: 50.0 mg/kg/injection, schedule: Q04DX003 (ip), vehicle: saline 92 % of control | [1] 92 % of control | [2] 96 % of control

Nc1c(I)cc(C(=O)O)c(O)c1I
inactive: [3] 97 % of control | [4] 94 % of control | [5] 94 % of control | [6] 94 % of control | [7] 98 % of control

CCCCCCC/C=C/c1c(C)[nH]c2ccccc2c1=O
inactive: [8] 96 % of control | [9] 93 % of control | [10] 89 % of control

O=C1C2=C(C(=O)C3=C1C1CCC3C1)C1CCC2C1
inactive: dose: 100.0 mg/kg/injection, schedule: Q04DX002 (ip), vehicle: saline with Tween-80 90 % of control | dose: 400.0 mg/kg/injection, schedule: Q04DX002 (ip), vehicle: saline with Tween-80 93 % of control

Cc1c(Cl)ccc2c(=O)c(C(=O)O)c[nH]c12
inactive: [8] 95 % of control | [9] 103 % of control | [10] 97 % of control

CCOC(=O)C(C#N)=P(c1ccccc1)(c1ccccc1)c1ccccc1
inactive: [3] 96 % of control | [4] 88 % of control | [6] 96 % of control

NCc1nc(C(=O)O)cs1
inactive: [11] 110 % of control | dose: 100.0 mg/kg/injection, schedule: Q01DX009 (ip), vehicle: saline 91 % of control | [1] 116 % of control | [12] 102 % of control | dose: 200.0 mg/kg/injection, schedule: Q01DX009 (ip), vehicle: saline 87 % of control | [2] 112 % of control | [13] 112 % of control | dose: 400.0 mg/kg/injection, schedule: Q01DX009 (ip), vehicle: saline 86 % of control | [14] 96 % of control

CCCCCCCCCCCC[N+](C)(C)Cc1cc(=O)c(O)co1
inactive: dose: 12.5 mg/kg/injection, schedule: Q04DX002 (ip), vehicle: saline 94 % of control | dose: 25.0 mg/kg/injection, schedule: Q04DX002 (ip), vehicle: saline 105 % of control | dose: 50.0 mg/kg/injection, schedule: Q04DX002 (ip), vehicle: saline 115 % of control

COC(=O)C#CBr
inactive: dose: 3.13 mg/kg/injection, schedule: Q01DX009 (ip), vehicle: other 108 % of control | dose: 6.25 mg/kg/injection, schedule: Q01DX009 (ip), vehicle: other 97 % of control

Cc1ccc(N=Cc2ccccc2O)cc1.[Co]
inactive: dose: 100.0 mg/kg/injection, schedule: Q01DX001 (ip), vehicle: other 102 % of control | dose: 200.0 mg/kg/injection, schedule: Q01DX001 (ip), vehicle: other 98 % of control | dose: 400.0 mg/kg/injection, schedule: Q01DX001 (ip), vehicle: other 110 % of control

CCOC(=O)c1ccc(Nc2sc(C(=O)c3cccc([N+](=O)[O-])c3)c(N)c2C#N)cc1
inactive: dose: 100.0 mg/kg/injection, schedule: Q04DX002 (ip), vehicle: Klucel (hydroxypropylcellulose) (HPC) 101 % of control | dose: 200.0 mg/kg/injection, schedule: Q04DX002 (ip), vehicle: Klucel (hydroxypropylcellulose) (HPC) 92 % of control | dose: 400.0 mg/kg/injection, schedule: Q04DX002 (ip), vehicle: Klucel (hydroxypropylcellulose) (HPC) 92 % of control

CSc1cc(C)[o+]c(C)c1
inactive: dose: 12.5 mg/kg/injection, schedule: Q01DX009 (ip), vehicle: Klucel (hydroxypropylcellulose) (HPC) 108 % of control | dose: 25.0 mg/kg/injection, schedule: Q01DX009 (ip), vehicle: Klucel (hydroxypropylcellulose) (HPC) 112 % of control | dose: 50.0 mg/kg/injection, schedule: Q01DX009 (ip), vehicle: Klucel (hydroxypropylcellulose) (HPC) 105 % of control | dose: 75.0 mg/kg/injection, schedule: Q01DX009 (ip), vehicle: acetone 110 % of control | [11] 97 % of control | [15] 120 % of control | dose: 115.0 mg/kg/injection, schedule: Q01DX009 (ip), vehicle: acetone 103 % of control | dose: 170.0 mg/kg/injection, schedule: Q01DX009 (ip), vehicle: acetone 95 % of control | [12] 103 % of control | [16] 106 % of control | dose: 255.0 mg/kg/injection, schedule: Q01DX009 (ip), vehicle: acetone 110 % of control

O=S(=O)(O)SCCNC1CCC(NCCSS(=O)(=O)O)CC1 (stereo not given)
inactive: [1] 105 % of control | [2] 116 % of control | [14] 114 % of control

Cc1ccnc(NC(=O)NCCCl)c1
inactive: dose: 100.0 mg/kg/injection, schedule: Q01DX001 (ip), vehicle: carboxymethylcellulose (CMC) 103 % of control | dose: 200.0 mg/kg/injection, schedule: Q01DX001 (ip), vehicle: carboxymethylcellulose (CMC) 108 % of control | dose: 400.0 mg/kg/injection, schedule: Q01DX001 (ip), vehicle: carboxymethylcellulose (CMC) 108 % of control

O=S(=O)(OCC(O)C1OCOC2COCOC21)c1ccccc1 (stereo not given)
inactive: dose: 100.0 mg/kg/injection, schedule: Q01DX001 (ip), vehicle: Klucel (hydroxypropylcellulose) (HPC) 112 % of control | dose: 200.0 mg/kg/injection, schedule: Q01DX001 (ip), vehicle: Klucel (hydroxypropylcellulose) (HPC) 93 % of control | dose: 400.0 mg/kg/injection, schedule: Q01DX001 (ip), vehicle: Klucel (hydroxypropylcellulose) (HPC) 97 % of control

CCCCCCCCCCCCCCCC(=O)Oc1ccc(/C(CC)=C(/CC)c2ccc(OC(=O)CCCCCCCCCCCCCCC)cc2)cc1
inactive: [5] 89 % of control | [6] 91 % of control | [7] 100 % of control | dose: 400.0 mg/kg/injection, schedule: Q01DX009 (ip), vehicle: saline with Tween-80 91 % of control | [17] 89 % of control

O=C(N/N=C/c1ccccc1F)c1ccc(Cl)cc1
inactive: [3] 96 % of control | [4] 96 % of control | [6] 96 % of control

COC(OC)c1cc(=O)[nH]c(=S)n1Cl
inactive: [15] 86 % of control | [8] 102 % of control | [16] 91 % of control | [9] 107 % of control | dose: 400.0 mg/kg/injection, schedule: Q01DX009 (ip), vehicle: Klucel (hydroxypropylcellulose) (HPC) 91 % of control | [10] 105 % of control

NC(c1ccccc1)C1C(c2ccccc2)N1C1CCCCC1 (stereo not given)
inactive: [8] 95 % of control | [9] 86 % of control | [10] 98 % of control

O=C(N/N=C/c1ccc(Cl)c(Cl)c1)c1cccc2ccccc12
inactive: [11] 87 % of control | [13] 90 % of control

CCOC(=O)n1ccn2cncc2c1=O
inactive: [4] 86 % of control | [5] 95 % of control | [7] 101 % of control | [17] 95 % of control

O=C(Nc1ccc([N+](=O)[O-])cc1)c1cc(N2CCOCC2)ccn1
inactive: [11] 89 % of control and 91 % of control | [12] 94 % of control and 95 % of control | [13] 95 % of control and 91 % of control
